From ChEMBL document CHEMBL6177962, “Design, synthesis and biological evaluation of 2-arylbenzo[b]furan-4-vinylcarbonyl derivatives based on Salvianolic acid C as antioxidant neuroprotective agents for the treatment of ischemic stroke” (Eur J Med Chem, 2025)
The source made the active and inactive calls. The calls are words filed in the database; no cut-off is given here.

Key:
PC-12 [1] = experiment: Cytotoxicity against rat PC12 cells assessed as cell viability at 40 uM incubated for 24 hrs by CCK-8 assay relative to control; type: functional; details: read-out: Activity
PC-12 [2] = experiment: Cytotoxicity against rat PC12 cells assessed as cell viability at 10 uM incubated for 24 hrs by CCK-8 assay relative to control; type: functional; details: read-out: Activity
PC-12 [3] = experiment: Neuroprotective activity against t-BHP induced oxidative damage in rat PC12 cells model assessed as cell viability at 2.5 to 20 uM incubated for 24 hrs by CCK-8 assay; type: functional, cell-based; details: dose 2.5-20 µM
PC-12 [4] = experiment: Antioxidant activity in t-BHP -induced rat PC12 cells at 2.5 to 20 uM; type: functional, cell-based; details: dose 2.5-20 µM
PC-12 [5] = experiment: Neuroprotective activity against t-BHP induced oxidative damage in rat PC12 cells model assessed as reduction in intracellular ROS level at 10 uM incubated for 24 hrs by DCFH-DA probe based analysis; type: functional, cell-based
PC-12 [6] = experiment: Neuroprotective activity against t-BHP induced oxidative damage in rat PC12 cells model assessed as reduction in intracellular ROS level at 10 uM incubated for 24 hrs by DCFH-DA probe based flow cytometry analysis; type: functional, cell-based
Rattus norvegicus [7] = experiment: (§1) Neuroprotective activity against cerebral ischemia-reperfusion injury in MCAO rat model assessed as reduction in infarct area at 10 mg/kg, iv treated after 2 hrs ischemia followed by reperfusion measured after 1 week of post-reperfusion by TTC staining based analysis; type: functional, organism-based; details: time 1.0 weeks
Rattus norvegicus [8] = experiment: as §1, with “ROS accumulation in cortex” for “infarct area”, “dihydroethidium” for “TTC”, “based fluorescence microscopic” for “based”; type: functional, organism-based; details: time 1.0 weeks
[9] = Cytotoxicity against mouse RAW cells assessed as cell viability; type: toxicity, cell-based; set-up: concentration or dose not given beside the values; details: read-out: Activity
PC-12 [10] = experiment: Neuroprotective activity against t-BHP induced oxidative damage in rat PC12 cells model assessed as cell viability at 10 uM incubated for 24 hrs by CCK-8 assay relative to control; type: functional; details: read-out: Activity
PC-12 [11] = experiment: Neuroprotective activity against t-BHP induced oxidative damage in rat PC12 cells model assessed as attenuation of intracellular ROS level at 2.5 uM incubated for 24 hrs by DCFH-DA probe based analysis; type: functional, cell-based
PC-12 [12] = experiment: Neuroprotective activity against t-BHP induced oxidative damage in rat PC12 cells model assessed as attenuation of intracellular ROS level at 5 uM incubated for 24 hrs by DCFH-DA probe based analysis; type: functional, cell-based
PC-12 [13] = experiment: Neuroprotective activity against t-BHP induced oxidative damage in rat PC12 cells model assessed as reduction in intracellular ROS level at 2.5 to 10 uM incubated for 24 hrs by DCFH-DA probe based flow cytometry analysis; type: functional, cell-based; details: dose 2.5-10 µM
PC-12 [14] = experiment: Neuroprotective activity against t-BHP induced oxidative damage in rat PC12 cells model assessed as decrease in MDA level at 2.5 uM incubated for 24 hrs; type: functional, cell-based
PC-12 [15] = experiment: Neuroprotective activity against t-BHP induced oxidative damage in rat PC12 cells model assessed as decrease in MDA level at 5 uM incubated for 24 hrs; type: functional, cell-based
PC-12 [16] = experiment: Neuroprotective activity against t-BHP induced oxidative damage in rat PC12 cells model assessed as decrease in MDA level at 10 uM incubated for 24 hrs; type: functional, cell-based
PC-12 [17] = experiment: Neuroprotective activity against t-BHP induced oxidative damage in rat PC12 cells model assessed as increase in SOD activity at 2.5 uM incubated for 24 hrs; type: functional, cell-based
PC-12 [18] = experiment: Neuroprotective activity against t-BHP induced oxidative damage in rat PC12 cells model assessed as increase in SOD activity at 5 uM incubated for 24 hrs; type: functional, cell-based
PC-12 [19] = experiment: Neuroprotective activity against t-BHP induced oxidative damage in rat PC12 cells model assessed as increase in SOD activity at 10 uM incubated for 24 hrs; type: functional, cell-based
PC-12 [20] = experiment: Neuroprotective activity against t-BHP induced oxidative damage in rat PC12 cells model assessed as increase in NRF2 level incubated for 24 hrs by Western blot analysis; type: functional, cell-based; details: dose 2.5-10 µM
PC-12 [21] = experiment: Neuroprotective activity against t-BHP induced oxidative damage in rat PC12 cells model assessed as increase in HO-1 level incubated for 24 hrs by Western blot analysis; type: functional, cell-based; details: dose 2.5-10 µM
Rattus norvegicus [22] = experiment: (§2) Neuroprotective activity against cerebral ischemia-reperfusion injury in MCAO rat model assessed as reduction in infarct area at 5 to 20 mg/kg, iv treated after 2 hrs ischemia followed by reperfusion measured after 1 week of post-reperfusion by TTC staining based analysis; type: functional, organism-based; details: dose 5-20 mg/kg, time 1.0 weeks
Rattus norvegicus [23] = experiment: Neuroprotective activity against cerebral ischemia-reperfusion injury in MCAO rat model assessed as reduction in infarct area at 20 mg/kg, iv treated after 2 hrs ischemia followed by reperfusion measured after 1 week of post-reperfusion by TTC staining based analysis; type: functional, organism-based; details: time 1.0 weeks
Rattus norvegicus [24] = experiment: Neuroprotective activity against cerebral ischemia-reperfusion injury in MCAO rat model at 10 mg/kg, iv treated after 2 hrs ischemia followed by reperfusion measured after 1 week of post-reperfusion by barnes maze test; type: functional, organism-based; details: time 1.0 weeks
Rattus norvegicus [25] = experiment: as §2, with “ROS accumulation in cortex” for “infarct area”, “dihydroethidium” for “TTC”, “based fluorescence microscopic” for “based”; type: functional, organism-based; details: dose 5-20 mg/kg, time 1.0 weeks
Rattus norvegicus [26] = experiment: Neuroprotective activity against cerebral ischemia-reperfusion injury in MCAO rat model assessed as decrease in apoptotic cells in cerebral brain at 5 mg/kg, iv treated after 2 hrs ischemia followed by reperfusion measured after 1 week of post-reperfusion by TUNEL staining based analysis; type: functional, organism-based; details: time 1.0 weeks
Rattus norvegicus [27] = experiment: Neuroprotective activity against cerebral ischemia-reperfusion injury in MCAO rat model assessed as decrease in apoptotic cells in cerebral brain at 10 mg/kg, iv treated after 2 hrs ischemia followed by reperfusion measured after 1 week of post-reperfusion by TUNEL staining based analysis; type: functional, organism-based; details: time 1.0 weeks
Rattus norvegicus [28] = experiment: Neuroprotective activity against cerebral ischemia-reperfusion injury in MCAO rat model assessed as decrease in apoptotic cells in cerebral brain at 20 mg/kg, iv treated after 2 hrs ischemia followed by reperfusion measured after 1 week of post-reperfusion by TUNEL staining based analysis; type: functional, organism-based; details: time 1.0 weeks
Rattus norvegicus [29] = experiment: In vivo activation of Nrf2 pathway in MCAO induced rat model assessed as increase in NRF2 level in brain at 5 to 20 mg/kg, iv by immunofluorescence analysis; type: functional, organism-based; details: dose 5-20 mg/kg
Rattus norvegicus [30] = experiment: In vivo activation of Nrf2 pathway in MCAO induced rat model assessed as increase in NRF2 level in cytoplasm at 5 to 20 mg/kg, iv by Western blot analysis; type: functional, organism-based; details: dose 5-20 mg/kg
Rattus norvegicus [31] = experiment: In vivo activation of Nrf2 pathway in MCAO induced rat model assessed as increase in NRF2 level in nucleus at 5 to 20 mg/kg, iv by Western blot analysis; type: functional, organism-based; details: dose 5-20 mg/kg
Rattus norvegicus [32] = experiment: Upregulation of NRF2 level in MCAO rat model at 5 to 20 mg/kg, iv by Western blot analysis; type: functional, organism-based; details: dose 5-20 mg/kg
Rattus norvegicus [33] = experiment: […] of HO-1 level rat model at 5 to 20 mg/kg, iv by Western blot analysis; type: functional, organism-based; details: dose 5-20 mg/kg
[34] = biological target: Kelch-like ECH-associated protein 1 (Rattus norvegicus) (UniProt P57790); experiment: Binding affinity to KEAP1 in rat PC12 cells assessed as thermal stabilization at 10 uM incubated for 3 hrs at 4 degreeC by CETSA; type: cell-based
PC-12 [35] = experiment: Downregulation of KEAP1 expression in rat PC12 cells at 10 uM incubated for 3 hrs by Western blot analysis; type: functional, cell-based
[36] = Metabolic stability in rat liver microsome assessed as parent compound remaining after 60 mins; type: ADME; details: liver microsomes, read-out: Stability
[37] = Permeability of the compound across blood brain barrier in mouse BEND3 cells at 10 uM incubated for 24 to 48 hrs by HPLC analysis; type: ADME, cell-based; details: time 24-48 hrs, read-out: permeability

Sequence of Kelch-like ECH-associated protein 1 (Rattus norvegicus) (P57790 whole entry): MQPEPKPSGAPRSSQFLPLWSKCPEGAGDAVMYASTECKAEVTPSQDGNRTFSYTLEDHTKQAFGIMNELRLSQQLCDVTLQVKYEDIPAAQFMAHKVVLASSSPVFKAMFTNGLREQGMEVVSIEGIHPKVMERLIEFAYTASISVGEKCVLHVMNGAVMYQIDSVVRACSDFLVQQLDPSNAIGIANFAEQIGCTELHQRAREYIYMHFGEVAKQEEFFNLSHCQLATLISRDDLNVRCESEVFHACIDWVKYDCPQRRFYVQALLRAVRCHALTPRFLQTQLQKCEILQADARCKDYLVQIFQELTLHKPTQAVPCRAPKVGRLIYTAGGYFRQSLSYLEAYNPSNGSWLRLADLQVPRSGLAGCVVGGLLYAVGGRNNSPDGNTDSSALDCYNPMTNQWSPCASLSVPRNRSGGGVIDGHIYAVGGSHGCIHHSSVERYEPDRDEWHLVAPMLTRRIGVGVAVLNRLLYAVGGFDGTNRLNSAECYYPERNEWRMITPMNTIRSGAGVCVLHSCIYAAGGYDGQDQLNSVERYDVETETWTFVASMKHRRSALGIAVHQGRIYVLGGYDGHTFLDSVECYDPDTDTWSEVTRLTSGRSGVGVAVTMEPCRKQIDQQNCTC

COc1ccc(-c2cc3c(/C=C/C(=O)c4cc(OC)c(OC)c(OC)c4)ccc(OC)c3o2)cc1OC
viability at 40 µM (PC-12 [1]): 105%
viability at 10 µM (PC-12 [2]): 95.5%
Activity (PC-12 [3]): Active
Activity (PC-12 [4]): Active

COc1ccc(-c2cc3c(/C=C/C(=O)NCCc4ccc(O)c(O)c4)ccc(OC)c3o2)cc1
viability at 40 µM (PC-12 [1]): 98.2%
viability at 10 µM (PC-12 [2]): 99.2%
Activity (PC-12 [3]): Active
Activity (PC-12 [4]): Active

COc1ccc(/C=C/C(=O)NCCc2ccc(O)c(O)c2)c2cc(-c3ccc(C)cc3)oc12
viability at 40 µM (PC-12 [1]): 103%
viability at 10 µM (PC-12 [2]): 99.3%
Activity (PC-12 [3]): Active
Activity (PC-12 [4]): Active

CC1=NN(c2ccccc2)C(=O)C1
Activity (PC-12 [5]): Active
Activity (PC-12 [6]): Active
Activity (Rattus norvegicus [7]): Active
Activity (Rattus norvegicus [8]): Active

COc1ccc(/C=C/C(=O)c2cccc(O)c2)c2cc(-c3ccc(C)cc3)oc12
viability at 40 µM (PC-12 [1]): 80.6%
viability at 10 µM (PC-12 [2]): 37.7%
viability [9]: < 80%

COc1ccc(-c2cc3c(/C=C/C(=O)c4cc(OC)c(OC)c(OC)c4)ccc(OC)c3o2)cc1
viability at 40 µM (PC-12 [1]): 72.9%
viability at 10 µM (PC-12 [2]): 43.7%
viability [9]: < 80%

COc1ccc(/C=C/C(=O)c2ccc(O)c(O)c2)c2cc(-c3ccc(C)cc3)oc12
viability at 40 µM (PC-12 [1]): 109%
viability at 10 µM (PC-12 [2]): 101%
Activity (PC-12 [3]): Active
Activity (PC-12 [4]): Active
viability at 10 µM (PC-12 [10]): 95%
Activity (PC-12 [11]): Active
Activity (PC-12 [12]): Active
Activity (PC-12 [5]): Active
Activity (PC-12 [13]): Active
Activity (PC-12 [14]): Active
Activity (PC-12 [15]): Active
Activity (PC-12 [16]): Active
Activity (PC-12 [17]): Active
Activity (PC-12 [18]): Active
Activity (PC-12 [19]): Active
Activity (PC-12 [20]): Dose-dependent-effect
Activity (PC-12 [21]): Dose-dependent-effect
Activity (Rattus norvegicus [22]): Active
Activity (Rattus norvegicus [23]): Active
Activity (Rattus norvegicus [24]): Active
Activity (Rattus norvegicus [25]): Active
Activity (Rattus norvegicus [26]): Active
Activity (Rattus norvegicus [27]): Active
Activity (Rattus norvegicus [28]): Active
Activity (Rattus norvegicus [29]): Active
Activity (Rattus norvegicus [30]): Active
Activity (Rattus norvegicus [31]): inactive
Activity (Rattus norvegicus [32]): Active
Activity (Rattus norvegicus [33]): Active
Activity [34]: Active
Activity (PC-12 [35]): Active
remaining at 1 h [36]: 63.8%
Papp at 10 µM [37]: 7.46 ×10⁻⁶ cm/s

COc1ccc(/C=C/C(=O)c2ccc(O)cc2)c2cc(-c3ccc(C)cc3)oc12
viability at 40 µM (PC-12 [1]): 84.1%
viability at 10 µM (PC-12 [2]): 55.9%
viability [9]: < 80%

COc1cc(C(=O)/C=C/c2ccc(OC)c3oc(-c4ccc(OC)c(OC)c4)cc23)ccc1O
viability at 40 µM (PC-12 [1]): 93.8%
viability at 10 µM (PC-12 [2]): 12.9%
viability [9]: < 80%

COc1cc(OC)cc(-c2cc3c(/C=C/C(=O)NCCc4ccc(O)c(O)c4)ccc(OC)c3o2)c1
viability at 40 µM (PC-12 [1]): 98.7%
viability at 10 µM (PC-12 [2]): 76.7%
viability [9]: < 80%

COC(=O)[C@@H]1CCCN1C(=O)/C=C/c1ccc(OC)c2oc(-c3ccc(C)cc3)cc12
viability at 40 µM (PC-12 [1]): 75.5%
viability at 10 µM (PC-12 [2]): 32.3%

COc1cc(OC)cc(-c2cc3c(/C=C/C(=O)c4ccc(O)c(OC)c4)ccc(OC)c3o2)c1
viability at 40 µM (PC-12 [1]): 94.6%
viability at 10 µM (PC-12 [2]): 45.6%

COC(=O)[C@@H](NC(=O)/C=C/c1ccc(OC)c2oc(-c3ccc(C)cc3)cc12)c1ccccc1
viability at 40 µM (PC-12 [1]): 99.3%
viability at 10 µM (PC-12 [2]): 74.1%

COc1ccc(/C=C/C(=O)c2ccco2)c2cc(-c3ccc(C)cc3)oc12
viability at 40 µM (PC-12 [1]): 107%
viability at 10 µM (PC-12 [2]): 78.5%
viability [9]: < 80%

COc1ccc(C(=O)/C=C/c2ccc(OC)c3oc(-c4ccc(C)cc4)cc23)cc1OC
viability at 40 µM (PC-12 [1]): 80.1%
viability at 10 µM (PC-12 [2]): 42.9%

COC(=O)[C@H](Cc1c[nH]c2ccccc12)NC(=O)/C=C/c1ccc(OC)c2oc(-c3cc(OC)cc(OC)c3)cc12
viability at 40 µM (PC-12 [1]): 105%
viability at 10 µM (PC-12 [2]): 79.4%

COc1ccc(/C=C/C(=O)NCCc2ccccc2)c2cc(-c3ccc(C)cc3)oc12
viability at 40 µM (PC-12 [1]): 99.1%
viability at 10 µM (PC-12 [2]): 93.8%
